{
  "source": "patent US10596145B2",
  "about": "“Heterocyclic flavone derivatives, compositions, and methods related thereto” (Emory University, priority 2012, dated 2020)",
  "key": {"TrkB [1]": {"target": "T1, TrkB (Rattus norvegicus, UniProt Q63604)", "T1 construct": "endogenous in cells; host or cells: primary cortical neurons from E17 rat embryos", "T1 sequence (Q63604 32-821)": "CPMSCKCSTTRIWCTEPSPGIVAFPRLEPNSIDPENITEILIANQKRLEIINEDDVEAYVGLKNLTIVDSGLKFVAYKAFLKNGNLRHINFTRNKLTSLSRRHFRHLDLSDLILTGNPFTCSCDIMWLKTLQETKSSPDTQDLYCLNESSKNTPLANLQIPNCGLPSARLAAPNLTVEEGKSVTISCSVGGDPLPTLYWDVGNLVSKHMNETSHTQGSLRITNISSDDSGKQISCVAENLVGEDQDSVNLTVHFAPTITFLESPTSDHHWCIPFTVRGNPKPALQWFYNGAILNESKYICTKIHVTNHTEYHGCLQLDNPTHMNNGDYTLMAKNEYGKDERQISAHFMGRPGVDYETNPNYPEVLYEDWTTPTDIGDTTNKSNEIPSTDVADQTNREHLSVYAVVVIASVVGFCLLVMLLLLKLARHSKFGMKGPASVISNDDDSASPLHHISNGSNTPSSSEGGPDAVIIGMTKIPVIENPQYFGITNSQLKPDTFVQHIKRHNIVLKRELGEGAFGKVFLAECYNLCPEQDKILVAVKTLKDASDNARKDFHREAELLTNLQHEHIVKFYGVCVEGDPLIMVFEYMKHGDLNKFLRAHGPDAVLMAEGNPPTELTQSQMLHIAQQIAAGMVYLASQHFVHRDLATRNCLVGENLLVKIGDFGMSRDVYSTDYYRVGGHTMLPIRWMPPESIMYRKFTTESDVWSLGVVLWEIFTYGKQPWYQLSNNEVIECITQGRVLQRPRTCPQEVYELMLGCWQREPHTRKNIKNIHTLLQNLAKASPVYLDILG", "test": "TrkB activation in primary cortical neurons (immunoblotting)", "assay_type": "cell-based", "settings": "500 nM, 15 min", "protocol": "Primary cortical cultures from E17 rat embryos were treated with 500 nM of various synthetic flavone derivatives for 15 min. The cell lysates (20 μg) were analyzed by the immunoblotting.\nRat primary neurons were treated with 500 nM various indicated compounds from 15 min. The neuronal lysates ([…]) were analyzed with various antibodies.\n500 nM of different synthetic compounds were added to DIV 7 neurons for 15 min. The cell lysates were analyzed by immunoblotting with indicated p-Akt 473 antibodies.\nReplacing the 3′-dimethylamino group or 4′-morpholino group was tested for TrkB agonistic activity. To compare the TrkB activation by these compounds, primary cortical cultures were prepared and treated them with 500 nM of various compounds for 15 min and collected the cell lysates. […] The p-Akt ELISA analysis results were similar to the TrkB activation pattern (FIG. 2B, lower panel)."}, "[2]": {"test": "In vivo metabolism studies of 7,8-DHF", "text": "Among the modifications, glucuronidation and sulfation are thought to be responsible for the in vivo metabolism of the flavonoids. In addition, the O-methylated metabolites were detected in both the plasma and brain samples after oral administration. These modification pathways may explain the relatively short half-life of 7,8-DHF. Alteration of this labile group into the bioisosteric imidazole derivative escalates the PK profiles in compound o."}, "[3]": {"test": "Metabolite investigation of the methylated metabolites of 7,8-DHF", "protocol": "In order to increase the hydrophobicity, EU-B-related compounds were prepared by keeping the urea functional group. In metabolite investigation of the methylated metabolites of 7,8-DHF, it was discovered that that 7-methoxy-8-hydroxy metabolite is active. A methyl group was added on the urea group."}, "[4]": {"test": "In vivo pharmacokinetic studies in mice", "design": "species or system mouse", "settings": "mice", "protocol": "For compound a, the standard dosage of 1 mg/kg via i.v. injection and 5 mg/kg for P.O. route was employed. […] Presumably, the dosage is too low for the in vivo PK assay. Thus, the doses of the tested compound o were increased. […] Moreover, the bioavailability is around 2% for compound o at a 10 mg/kg dosage.\nTwenty to thirty grams mice within the age of 6-8 weeks old were administrated with the indicated compounds i. v. or orally. At different time points (3, 10, 30, 60, 120, 240, 360 and 480 min), blood aliquots (300-400 μl) were collected in tubes coated with lithium heparin, mixed gently, then kept on ice and centrifuged at 2500×g for 15 min at 4° C., within 1 h of collection. The plasma was then harvested and kept frozen at −20° C. until further processing. For each time point, 3 mice/group were employed. The plasma samples were analyzed by HPLC."}, "TrkB [5]": {"target": "T2, TrkB (Mus musculus, UniProt P15209)", "T2 construct": "from tissue; host or cells: mouse brain (hippocampus, cortex), C57BL/6", "T2 sequence (P15209 32-821)": "as the sequence (Q63604 32-821) above, with M3T, T9S, T10A, I32V, K63R, G84S, T153M, I185L, T394S, N770S counted along it", "test": "TrkB phosphorylation in mouse brain after oral administration (immunoblotting, immunohistochemistry)", "assay_type": "in vivo", "protocol": "One mg/kg of various indicated compounds were orally administrated into C57 BL/6J mice and TrkB phosphorylation and its downstream signaling cascades including Akt and MAPK in the hippocampus of mouse brain were analyzed by immunoblotting at 4 h. […] The downstream p-Akt and p-MAPK activity coupled to the TrkB activation patterns.\nTime course assay with 4′-dimethylamino-7,8-imidazole flavone. One mg/kg of compound (i) and compound (m) were orally administrated into C57 BL/6J mice and TrkB phosphorylation and its downstream signaling cascades including Akt in mouse brain were analyzed by immunoblotting at various time points. TrkB activation by compound m peaked at 4 h, whereas the maximal TrkB activation by compound i in mouse brain occurred at 1-2 h. Arrows indicate the p-TrkB in mature glycosylated or unglycosylated forms (top panels). The downstream Akt activation pattern tightly correlated with the upstream TrkB activation.\n(§1) Male C57BL/6 mice aged of two months were administrated orally with 4′-DMA-7,8-DHF derivatives at a single dose of 1 mg/kg for 4 h. The control mice were injected with saline. The mice were sacrificed and brains were homogenated and ultracentrafuged. The supernatant (40 μg) was employed for SDS-PAGE and immunoblotting analysis with indicated antibodies, respectively. Male C57BL/6 mice aged of two months were administrated orally with compound (i) or (m) at the dose of 5 mg/kg/day each and compound o or p at the dose of 2.5 mg/kg/day each for 21 days. BrdU (100 mg/kg) was i. p. injected two hours before the TrkB agonist treated animals were sacrificed and the hippocampal section lysates were analyzed by immunoblotting with p-TrkB and total TrkB antibodies, p-AKT ELISA.\nBrain tissues were fixed in 4% paraformaldehyde overnight followed by paraffin embedding. Sections of 6 μm were cut. For immunohistochemical staining, brain sections were deparaffinized in xylene and rehydrated in graded alcohols. Endogenous peroxidase activity was blocked by 3% hydrogen peroxide for 5 min and all slides were boiled in 10 mM sodium citrate buffer (pH 6.0) for 10 min. Phosphorylated TrkB 816 and TrkB were detected using specific antibodies. Paraffin section were deparaffinized in xylene and rehydrated gradient ethanol solution. Samples were boiled in 10 mM sodium citrate buffer for 20 min for antigen retrieval purpose. Brain sections were incubated with anti-TrkB (BD Biosciences, San Jose, Calif.) 1:50, p-TrkB 1:300 dilution. Secondary antibody was applied using anti-rabbit-Alexa 594 (red), anti-mouse-fluorescein isothiocyanate (FITC) (green). DAPI (blue) was used for nuclear staining."}, "Akt": {"test_system": "Akt", "test": "Downstream Akt activation in mouse brain (p-Akt immunoblotting, p-Akt 473 ELISA)", "assay_type": "in vivo", "protocol": "PathScan Phospho-Akt1 (Ser473) Sandwich ELISA kit was purchased from Cell Signaling (Cat. #7160). 100 μl sample in sample diluent (supplied in the kit) was added to each well and incubated overnight at 4° C. After 4× wash with 200 ul wash buffer (supplied in the kit), 100 ul/well detection antibody was added and incubated for 1 hour at 37° C. After 4× wash, 100 μl of HRP-linked secondary antibody (supplied in the kit) was added and incubated for 30 minutes at 37° C. After a final wash, 100 μl of TMB substrate was added to each well and incubated for 10 minutes at 37° C. The reaction was stopped by adding 100 μl/well stop solution. Record the values of each well using microplate reader at 450 nm and 650 nm. The optical density was determined by the subtraction of the reading at 650 nm from the reading s at 450 nm.\nas §1"}, "HepG2 cells": {"test_system": "HepG2 cells", "test": "In vitro cytotoxicity assay with HepG2 cells", "assay_type": "cell-based", "settings": "micronucleus and comet assays", "protocol": "HepG2 cells were treated with various concentrations of flavonoids for 24 h. The drug-treated cells were subjected to trypan blue exclusive assay. Data are presented as mean±SEM. (n=3, ***P<0.0001 vs vehicle).\nIn vitro and in vivo ADMET (ADME plus toxicity) of certain compounds were examined. […] Micronuclei formation is an important endpoint in genotoxicity study. […] Next, a Comet assay was performed with 100 μM drug-treated HepG2 cells. As a positive control, etoposide, a topoisomerase inhibitor, which causes DNA strand breaks was used."}, "[6]": {"test": "Reactive metabolic screening assay", "assay_type": "in vitro ADME", "settings": "liver microsomal lysates", "text": "(§2) To explore these compounds' in vitro ADMET profiles, we conducted numerous in vitro assays."}, "C57BL/6J mice [7]": {"test_system": "C57BL/6J mice", "test": "Forced swim test", "assay_type": "in vivo, mouse", "settings": "2.5 mg/kg oral, 21 days", "protocol": "Male C57BL/6J mice (6 mice/group) were orally administrated by gavage with 5 mg/kg compound (m) or compound (i) and vehicle solvent saline for 21 days and subjected to a forced swim test (6 min, immobility recorded in the last 4 min). Data are presented as mean±SEM. (n=6, ***P<0.0001 vs vehicle, Student t-test).\nForced swim test. Male C57BL/6J mice (8 mice/group) were orally administrated by gavage with 2.5 mg/kg compound o or compound p and vehicle solvent saline for 21 days and subjected to a forced swim test (6 min, immobility recorded in the last 4 min). […] Data are presented as mean±SEM.\nAdult male mice (2-3 months old) were randomly submitted to a forced swim test without a preswim. Test compounds were orally administrated by gavage for 21 days. The mice were allowed to adapt to the test room for 2 days. The mice were placed in a clear glass cylinder with a diameter of 16 cm, half-filled with clear water at 24° C."}, "CYP1A2": {"target": "T3, CYP1A2 (Homo sapiens, UniProt P05177)", "T3 sequence (P05177 1-516)": "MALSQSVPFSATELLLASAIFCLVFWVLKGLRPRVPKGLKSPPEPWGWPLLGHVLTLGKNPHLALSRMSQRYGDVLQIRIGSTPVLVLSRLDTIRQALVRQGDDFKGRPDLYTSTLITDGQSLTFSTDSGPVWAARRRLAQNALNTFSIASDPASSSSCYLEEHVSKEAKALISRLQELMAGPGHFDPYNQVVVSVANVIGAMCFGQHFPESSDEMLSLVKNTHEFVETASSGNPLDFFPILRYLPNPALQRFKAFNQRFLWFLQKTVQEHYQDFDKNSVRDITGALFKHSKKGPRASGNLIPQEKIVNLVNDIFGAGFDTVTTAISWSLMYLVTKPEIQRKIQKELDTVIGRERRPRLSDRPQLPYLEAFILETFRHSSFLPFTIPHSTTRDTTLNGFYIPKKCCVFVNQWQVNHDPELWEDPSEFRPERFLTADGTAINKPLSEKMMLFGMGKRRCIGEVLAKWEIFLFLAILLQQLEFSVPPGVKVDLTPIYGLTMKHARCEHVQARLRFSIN", "test": "CYP screen inhibition", "assay_type": "in vitro ADME", "settings": "at 3 μM", "protocol": "At 30 μM, the inhibition patterns contained similar trends. To test the possible cardiovascular toxicity, hERG inhibition triggered by compound o was examined."}, "[8]": {"test": "Human liver microsomal stability assay", "assay_type": "in vitro ADME", "settings": "human liver microsomes, 1 h incubation", "text": "as §2"}, "C57BL/6J mice [9]": {"test_system": "C57BL/6J mice", "test": "Locomotor activity assay", "assay_type": "in vivo, mouse", "settings": "2.5 mg/kg oral, 3 weeks", "protocol": "The above drug-treated mice were subjected locomotor activity at day 22. […] Data are presented as mean±SEM.\nLocomotor activity was assessed using an automated system (San Diego Instruments, La Jolla, Calif., USA) with photobeams that recorded ambulations (consecutive beam breaks). Drug-treated mice were placed in the locomotor chambers, and their activity was recorded for 2 h with 30 min interval."}},
  "note": "“Also recorded” adds a separate entry of the source.",
  "data": [
    {"compound": "CN(C)c1cccc(-c2cc(=O)c3ccc(O)c(O)c3o2)c1", "note": "[3′-dimethylamino-7,8-DHF]", "values": [
      {"measurement": "TrkB activation (p-TrkB immunoblotting)", "setting": "TrkB [1]", "value": "comparable activity as compound a"}
    ]},
    {"compound": "O=c1cc(-c2ccc(N3CCOCC3)cc2)oc2c(O)c(O)ccc12", "note": "[4′-morpholino-7,8-DHF]", "values": [
      {"measurement": "TrkB activation (p-TrkB immunoblotting)", "setting": "TrkB [1]", "value": "comparable activity as compound a"}
    ]},
    {"compound": "O=c1cc(-c2ccccc2)oc2c(O)c(O)ccc12", "note": "[7,8-DHF, 7,8-dihdyroxyflavone]", "values": [
      {"measurement": "in vivo metabolic modifications", "setting": "[2]", "value": "subjected to oxidation, glucuronidation, sulfation and methylation"}
    ]},
    {"compound": "COc1ccc2c(=O)cc(-c3ccccc3)oc2c1O", "note": "[7-methoxy-8-hydroxy metabolite]", "values": [
      {"measurement": "activity of methylated metabolite", "setting": "[3]", "value": "is active"}
    ]},
    {"compound": "CN(C)c1ccc(-c2cc(=O)c3ccc(O)c(O)c3o2)cc1", "note": "[compound a, 4′-DMA-7,8-DHF, reference compound]", "values": [
      {"measurement": "AUClast", "setting": "[4]; 1 mg/kg i.v.", "value": "about 5930 min*ng/ml"},
      {"measurement": "in vivo half-life, t1/2", "setting": "[4]; 1 mg/kg i.v.", "value": "around 9 min"},
      {"measurement": "bioavailability", "setting": "[4]; 5 mg/kg P.O.", "value": "not measurable"},
      {"measurement": "TrkB activation in mouse brain", "setting": "TrkB [5]; 1 mg/kg oral, hippocampus, at 4 h", "value": "activated the TrkB receptor; also recorded: strongest TrkB stimulatory effect"},
      {"measurement": "downstream p-Akt and p-MAPK signalings", "setting": "Akt; 1 mg/kg oral, at 4 h", "value": "strongly activated"}
    ]},
    {"compound": "O=c1cc(-c2ccc(N3CCCC3)cc2)oc2c1ccc1nc[nH]c12", "note": "[compound n, 8-(4′-(pyrrolidino-)phenyl)chromeno[7,8-d]imidazol-6(1H)-one]", "values": [
      {"measurement": "cytotoxicity or genotoxicity (overall conclusion)", "setting": "HepG2 cells", "value": "negligible cytotoxicity or genotoxicity"}
    ]},
    {"compound": "O=c1cc(-c2ccc(N3CCCC3)cc2)oc2c1ccc1cc[nH]c12", "note": "[compound p, 2-(4-(pyrrolidin-1-yl)phenyl)pyrano[3,2-g]indol-4(9H)-one]", "values": [
      {"measurement": "cytotoxicity or genotoxicity (overall conclusion)", "setting": "HepG2 cells", "value": "negligible cytotoxicity or genotoxicity"},
      {"measurement": "reactive metabolite / adduct formation", "setting": "[6]", "value": "formed numerous adducts"},
      {"measurement": "immobility in forced swim test", "setting": "C57BL/6J mice [7]", "value": "but not compound p significantly decreased the immobility"},
      {"measurement": "CYP1A2 inhibition", "setting": "CYP1A2", "value": 37.4, "unit": "%"},
      {"measurement": "TrkB activation (p-TrkB immunoblotting)", "setting": "TrkB [1]", "value": "higher activity than compound m"},
      {"measurement": "TrkB phosphorylation after chronic treatment (immunoblotting)", "setting": "TrkB [5]; 2.5 mg/kg/day oral, 21 days", "value": "markedly activated TrkB receptor; also recorded: evidently elevated TrkB phosphorylation"},
      {"measurement": "TrkB phosphorylation in hippocampus (immunohistochemistry, anti-p-TrkB 816)", "setting": "TrkB [5]; 2.5 mg/kg/day oral, chronic", "value": "elevated TrkB phosphorylation in hippocampus"},
      {"measurement": "remaining unchanged after incubation", "setting": "[8]", "value": 1.2, "unit": "%"},
      {"measurement": "Akt activation (quantitative p-Akt ELISA)", "setting": "Akt; 2.5 mg/kg/day oral, 3 weeks", "value": "notably activated Akt"},
      {"measurement": "locomotor activity", "setting": "C57BL/6J mice [9]", "value": "neither compound o nor p altered the motion activity"}
    ]}
  ]
}
